Experimental findings from patent publication US20250177396A1, “POLO-LIKE KINASE 4 (PLK4) INHIBITORS, PHARMACEUTICAL COMPOSITIONS, METHODS OF PREPARATION AND USES THEREOF” (Repare Therapeutics Inc., priority 2022, published 2025) are described below.

pIC50: −log10 of the molar value. A value given as a limit tells only on which side of the number the result lay.

This assay deals with T1, PLK4 (Homo sapiens, UniProt O00444).
T1 construct: expressed in transfected cells; host or cells: HEK293 T cells (ATCC CRL-3216)
T1 sequence (O00444 1-970): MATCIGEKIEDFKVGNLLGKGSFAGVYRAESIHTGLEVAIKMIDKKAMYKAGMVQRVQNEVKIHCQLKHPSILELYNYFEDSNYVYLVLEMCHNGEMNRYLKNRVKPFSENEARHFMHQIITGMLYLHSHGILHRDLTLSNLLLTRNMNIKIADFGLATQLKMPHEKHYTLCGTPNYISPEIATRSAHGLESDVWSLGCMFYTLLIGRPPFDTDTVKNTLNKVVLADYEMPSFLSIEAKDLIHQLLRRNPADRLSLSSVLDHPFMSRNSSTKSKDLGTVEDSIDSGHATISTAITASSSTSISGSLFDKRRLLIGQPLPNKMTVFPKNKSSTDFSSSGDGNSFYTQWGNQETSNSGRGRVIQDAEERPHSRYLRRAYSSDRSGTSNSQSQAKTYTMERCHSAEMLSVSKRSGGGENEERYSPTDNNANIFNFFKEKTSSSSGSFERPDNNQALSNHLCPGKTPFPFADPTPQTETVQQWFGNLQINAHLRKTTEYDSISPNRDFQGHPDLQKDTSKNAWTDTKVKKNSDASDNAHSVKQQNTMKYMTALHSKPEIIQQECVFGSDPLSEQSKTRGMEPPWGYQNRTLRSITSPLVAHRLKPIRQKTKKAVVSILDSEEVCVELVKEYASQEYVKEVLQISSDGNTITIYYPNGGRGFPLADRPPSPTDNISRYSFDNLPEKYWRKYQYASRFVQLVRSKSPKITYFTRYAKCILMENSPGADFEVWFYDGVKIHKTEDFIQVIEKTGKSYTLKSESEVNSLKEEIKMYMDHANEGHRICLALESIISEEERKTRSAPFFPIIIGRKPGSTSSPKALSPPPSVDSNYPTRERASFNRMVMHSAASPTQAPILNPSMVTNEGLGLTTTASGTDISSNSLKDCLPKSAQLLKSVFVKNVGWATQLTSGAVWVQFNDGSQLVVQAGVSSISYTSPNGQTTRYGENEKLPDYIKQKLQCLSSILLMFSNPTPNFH
Kind of assay: PLK4 NanoBRET target engagement assay. In kind it is binding. The conditions noted are these: HEK293 T cells transfected with PLK4 NanoLuc fusion vector; K-5 tracer; 2 hrs incubation. In short, it runs like this:
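HEK293T cells transiently expressing PLK4-NanoLuc, plated at 17000 cells/well with K-5 tracer and compound, incubated 2 h at 37 °C/5% CO2. After substrate/inhibitor mix, 610/450 nm emission ratio ×1000 gave mBRET; IC50 from 4-parameter fit.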
Background: In BRET a luciferase serves as donor, and the signal depends on an acceptor being close.
The term pIC50 denotes the IC50 on a negative log10 scale, so that one unit is a factor of ten. Low readings indicate a large IC50, high ones a small IC50. As to `Cc1cc(Nc2nc(N(C)c3ccc(S(C)(=O)=O)cc3F)nc(-c3cnn(C)n3)c2C2CC2)n[nH]1` [Compound 109], the pIC50 is 7.31.

`Cc1cc(Nc2nc(N(C)c3c(F)cc(S(C)(=O)=O)cc3F)nc(N3CCN(C)C(=O)C3)c2C2CC2)n[nH]1` [Compound 184]: the pIC50 was 7.48.

Compound `Cc1cc(Nc2nc(N(C)c3ccc(S(C)(=O)=O)cc3F)nc(N3CCOc4ccncc43)c2C2CC2)n[nH]1` [Compound 110, 5-cyclopropyl-6-(2,3-dihydro-4H-pyrido[4,3-b][1,4]oxazin-4-yl)-N^2-(2-fluoro-4-(methylsulfonyl)phenyl)-N^2-methyl-N^4-(5-methyl-1H-pyrazol-3-yl)pyrimidine-2,4-diamine] gave a pIC50 of 6.80.

For the compound `CN(c1nc(Nc2cc(C3CC3)[nH]n2)c(C2CC2)c(-c2cnn(CC(C)(C)O)c2)n1)c1c(F)cc(S(C)(=O)=O)cc1F` [Compound 297], the pIC50 was 7.85.

In the case of `COc1c(Nc2cc(C)[nH]n2)nc(N(C)c2ccc(-c3nccs3)cc2)nc1-c1cnn(C)c1` [Compound 80], the pIC50 is 6.04.

As to `CNC(=O)Cn1cc(-c2nc(N(C)c3c(F)cc(S(C)(=O)=O)cc3F)nc(Nc3cc(C)[nH]n3)c2C2CC2)cn1` [Compound 171], the pIC50 was 7.64. This pIC50 lies 1.60 log units higher than the previous one.

`Cc1cc(Nc2nc(N(C)c3c(F)cc(S(C)(=O)=O)cc3F)nc(-c3cc(C(F)F)n(C)n3)c2C2CC2)n[nH]1` [Compound 163] gave a pIC50 of 7.96. This pIC50 is 0.32 log units higher than that of the compound before.

In the case of `COC(C)(C)c1c(-c2nc(N(C)c3c(F)cc(S(C)(=O)=O)cc3F)nc(Nc3cc(C)[nH]n3)c2C2CC2)cnn1C` [Compound 311], the pIC50 was 7.85. This pIC50 and that of the compound before are within 0.2 log units of each other.

`Cc1cc(Nc2nc(N(C)c3cc(F)c(S(C)(=O)=O)cc3F)nc(-c3cn(C)c(C)n3)c2C2CC2)n[nH]1` [Compound 187] gave a pIC50 of 7.89.

The compound `Cc1cc(Nc2nc(N(C)c3c(F)cc(S(C)(=O)=O)cc3F)nc(-c3cn(C)c(C(=O)N(C)C)n3)c2C2CC2)n[nH]1` [Compound 293] had a pIC50 of 7.85. This pIC50 and that of the compound before are within 0.2 log units of each other.

Consider `COc1c(Nc2cc(C)[nH]n2)nc(N(C)c2ccc(Cn3ccnc3)cc2F)nc1-c1cnn(C)c1` [Compound 64], for which the pIC50 was 7.23.

Regarding `Cc1cc(Nc2nc(N(C)c3c(F)cc(S(C)(=O)=O)cc3F)nc(-c3cnn([C@H]4C[C@@H](O)C4)c3)c2C2CC2)n[nH]1` [Compound 254], the pIC50 was 8.40.

With `Cc1cc(Nc2nc(N(C)c3c(F)cc(S(C)(=O)=O)cc3F)nc(-c3cn(CCOC(F)(F)F)c(C)n3)c2C2CC2)n[nH]1` [Compound 259], the pIC50 was 8.15.

The compound `Cc1cc(Nc2nc(N(C)c3c(F)cc(S(C)(=O)=O)cc3F)nc(-c3ncn(C)c3C)c2C2CC2)n[nH]1` [Compound 283] had a pIC50 of 7.35. This pIC50 is 0.80 log units lower than that of the compound before.

Regarding `COc1cc(Nc2nc(N(C)c3c(F)cc(S(C)(=O)=O)cc3F)nc(-c3cnn(C)c3)c2C2CC2)n[nH]1` [Compound 292], the pIC50 was 7.62.

On to `Cc1cc(Nc2nc(N(C)c3c(F)cc(S(C)(=O)=O)cc3F)nc(-c3cnn(CCO)c3C)c2C2CC2)n[nH]1` [Compound 201], for which the pIC50 is 8.15.

On to `Cc1cc(Nc2nc(N(C)c3c(F)cc(S(C)(=O)=O)cc3F)nc(N3CCc4ncn(C)c4C3)c2C2CC2)n[nH]1` [Compound 282], for which the pIC50 was 8.22.

`Cc1cc(Nc2nc(N(C)c3c(F)cc(S(C)(=O)=O)cc3F)nc(-c3cnn4c3OCCC4)c2C2CC2)n[nH]1` [Compound 203] showed a pIC50 of 8.22.

`Cc1cc(Nc2nc(N(C)c3ccc(S(C)(=O)=O)cc3F)nc(-c3ncc(C)s3)c2C2CC2)n[nH]1` [Compound 44] gave a pIC50 of 6.62. Compared with the last compound, the pIC50 is 1.60 log units lower.

Consider `Cc1cc(Nc2nc(N(C)c3c(F)cc(S(C)(=O)=O)cc3F)nc(-c3cc4n(n3)CCOC4)c2C2CC2)n[nH]1` [Compound 240], for which the pIC50 is 8.40. Against the preceding compound, the pIC50 is 1.78 log units higher.

`Cc1cc(Nc2nc(N(C)c3c(F)cc(S(C)(=O)=O)cc3F)nc(-c3cnn(CC#N)c3)c2C2CC2)n[nH]1` [Compound 206] showed a pIC50 of 8.40.

For `Cc1cc(Nc2nc(N(C)c3c(F)cc(S(C)(=O)=O)cc3F)nc(-c3cc4n(C)c(=O)ccn4n3)c2C2CC2)n[nH]1` [Compound 245], the pIC50 was 8.30.

Turning to `[2H]C([2H])([2H])n1ncc(-c2nc(N(C)c3c(F)cc(S(C)(=O)=O)cc3F)nc(Nc3cc(C)[nH]n3)c2C2CC2)c1C` [Compound 153], the pIC50 is 8.10.

Consider `CCCS(=O)(=O)c1ccc(N(C)c2nc(Nc3cc(C)[nH]n3)c(OC)c(-c3cnn(C)c3)n2)cc1` [Compound 51], for which the pIC50 was 6.66.

In turn, `COc1c(Nc2cc(C)[nH]n2)nc(-n2ccc3cc(S(C)(=O)=O)ccc32)nc1-c1cnn(C)c1` [Compound 89] showed a pIC50 of 5.77.

For the compound `Cc1cc(Nc2nc(N(C)c3c(F)cc(S(C)(=O)=O)cc3F)nc(-c3cn(C)nc3CC#N)c2C2CC2)n[nH]1` [Compound 329], the pIC50 was 8.40.

`Cc1cc(Nc2nc(Nc3c(F)cc(S(C)(=O)=O)cc3F)nc(-c3cn(C)cn3)c2C2CC2)n[nH]1` [Compound 189]: the negative-log IC50 (pIC50) was 6.82.

The compound `Cc1cc(Nc2nc(N(C)c3c(F)cc(S(C)(=O)=O)cc3F)nc(-c3oc(C)nc3C)c2C2CC2)n[nH]1` [Compound 151] had a pIC50 of 8.15. This pIC50 is 1.33 log units higher than that of the compound before.

As to `COCCCS(=O)(=O)c1ccc(N(C)c2nc(Nc3cc(C)[nH]n3)c(OC)c(-c3cnn(C)c3)n2)cc1` [Compound 67], the pIC50 was 6.57. This pIC50 lies 1.58 log units lower than the previous one.

For the compound `Cc1cc(Nc2nc(N(C)c3c(F)cc(S(C)(=O)=O)cc3F)nc(-c3cnc4ccc(F)cn34)c2C2CC2)n[nH]1` [Compound 310], the pIC50 was 7.51.

As for `Cc1cc(Nc2nc(N(C)c3ccc(S(C)(=O)=O)cc3C)nc(-c3cnn(C)c3)c2C2CC2)n[nH]1` [Compound 56], the pIC50 was 6.89.

For the compound `Cc1cc(Nc2nc(N(C)c3c(F)cc(S(C)(=O)=O)cc3F)nc(-c3cn(C4CC(O)C4)cn3)c2C2CC2)n[nH]1` (stereo not drawn) [Compound 257], the pIC50 is 7.48.

`COc1c(Nc2cc(C)[nH]n2)nc(N(C)c2ccc(S(C)(=O)=O)nc2C)nc1-c1cnn(C)c1` [Compound 54] showed a pIC50 of 5.68.

Take `Cc1cc(Nc2nc(N(C)c3cc(F)c(S(C)(=O)=O)cc3F)nc(-c3cn(C(C)C)cn3)c2C2CC2)n[nH]1` [Compound 200]: the pIC50 was 8.10.

With `Cc1cc(Nc2nc(N(C)c3c(F)cc(S(C)(=O)=O)cc3F)nc(-c3cnn4c3CC(C)(C)C4)c2C2CC2)n[nH]1` [Compound 176], the pIC50 was 7.89. Compared with the last compound, the pIC50 is 0.21 log units lower.

For `COc1c(Nc2cc(C)[nH]n2)nc(N(C)c2ccc(CS(C)(=O)=O)cc2)nc1-c1cnn(C)c1` [Compound 47], the pIC50 was 5.64. Compared with the last compound, the pIC50 is 2.25 log units lower.

Take `COc1c(Nc2cc(C)[nH]n2)nc(N(C)c2ccc(S(C)(=O)=O)c(Cl)c2F)nc1-c1cnn(C)c1` [Compound 117]: the pIC50 is 6.66.

The compound `Cc1cc(Nc2nc(N(C)c3c(F)cc(C4CCOCC4)cc3F)nc(-c3cn(C)cn3)c2C2CC2)n[nH]1` [Compound 350] showed a pIC50 of 7.51. This pIC50 lies 0.85 log units higher than the previous one.

In turn, `Cc1cc(Nc2nc(N(C)c3c(F)cc(CC(=O)N4CCOCC4)cc3F)nc(-c3cn(C)cn3)c2C2CC2)n[nH]1` [Compound 364] had a pIC50 of less than 5.30.

Compound `Cc1cc(Nc2nc(N(C)c3c(F)cc(S(C)(=O)=O)cc3F)nc(-c3cn(C)nc3C(N)=O)c2C2CC2)n[nH]1` [Compound 251] showed a pIC50 of 6.51.

`Cc1cc(Nc2nc(N(C)c3c(F)cc(S(C)(=O)=O)cc3F)nc(-c3cn(C4CC(O)C4)nc3C)c2C2CC2)n[nH]1` (stereo not drawn) [Compound 365]: the pIC50 is 8.40.

`Cc1cc(Nc2nc(N(C)c3ccc(S(C)(=O)=O)cc3F)nc(-c3cn(C(C)C)cn3)c2C2CC2)n[nH]1` [Compound 199] gave a pIC50 of 7.77.
